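96-well plates; 48 h exposure; 5 concentrations. Endpoints by linear interpolation between flanking doses. Not reached: highest tested concentration assigned. The concentration for 50% growth inhibition is given as GI50.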 The source made the active and inactive calls. No stated cut-off is given here; in the data, active = GI50 up to about 1.1 µM and inactive = higher.
How the values were obtained:
Test in all cases: NCI-60 cell line screen, 48 h
COLO 205 = system: COLO 205
NCI-H23 = system: NCI-H23
SN12C = system: SN12C
SF-539 = system: SF-539
SF-268 = system: SF-268
OVCAR-3 = system: OVCAR-3
SK-MEL-5 = system: SK-MEL-5
HCT-116 = system: HCT-116
SK-OV-3 = system: SK-OV-3
HCC 2998 = system: HCC 2998
NCI/ADR-RES = system: NCI/ADR-RES
BT-549 = system: BT-549
HOP-62 = system: HOP-62
CAKI-1 = system: CAKI-1
SK-MEL-28 = system: SK-MEL-28
SK-MEL-2 = system: SK-MEL-2
PC-3 = system: PC-3
SR = system: SR
IGROV-1 = system: IGROV-1
CCRF-CEM = system: CCRF-CEM

Measured: GI50

CCCCCCCC1c2cc3nc(cc4[nH]c(cc5nc(cc([nH]2)[C@@]1(C)CC(=O)N(C)C)C(C)=C5CCC(=O)O)c(CCC(=O)O)c4C)C=C3C (stereo not given in full)
inactive: COLO 205 16.7 µM | NCI-H23 18.5 µM | SN12C 30.4 µM | SF-539 18.9 µM | SF-268 20.8 µM | OVCAR-3 17.5 µM | SK-MEL-5 29.7 µM | HCT-116 17.1 µM | SK-OV-3 40.6 µM | HCC 2998 20 µM | NCI/ADR-RES 20.4 µM | BT-549 14.9 µM | HOP-62 20.5 µM | CAKI-1 39 µM | SK-MEL-28 19.1 µM | SK-MEL-2 18.8 µM | PC-3 23.8 µM | SR 19.9 µM | IGROV-1 21 µM | CCRF-CEM 18.8 µM

O=C1Nc2ccccc2/C1=N/Nc1c(F)c(F)c(F)c(F)c1F
inactive: COLO 205 13.9 µM | NCI-H23 87.7 µM | SN12C 36.5 µM | SF-539 48.4 µM | SF-268 49.5 µM | OVCAR-3 > 100 µM | SK-MEL-5 58.5 µM | HCT-116 47.8 µM | SK-OV-3 > 100 µM | HCC 2998 > 100 µM | NCI/ADR-RES 70.1 µM | BT-549 > 100 µM | HOP-62 > 100 µM | CAKI-1 30.8 µM | SK-MEL-28 > 100 µM | SK-MEL-2 > 100 µM | PC-3 > 100 µM | SR 3.48 µM | IGROV-1 20.5 µM | CCRF-CEM 4 µM

O=Cc1ccc2c(c1)CC1(C2)Cc2ccc3c(c2C1)CCC3 (stereo not given)
inactive: COLO 205 20.8 µM | NCI-H23 14.6 µM | SN12C 8.45 µM | SF-539 9.02 µM | SF-268 12.9 µM | OVCAR-3 6.68 µM | SK-MEL-5 4.81 µM | HCT-116 6.82 µM | SK-OV-3 18.2 µM | HCC 2998 24.3 µM | NCI/ADR-RES 7.19 µM | BT-549 5.05 µM | HOP-62 9.4 µM | CAKI-1 21.1 µM | SK-MEL-28 12.7 µM | SK-MEL-2 4.02 µM | PC-3 5.51 µM | SR 4.42 µM | IGROV-1 16.4 µM | CCRF-CEM 5.14 µM

CC(C)(C)OC(=O)c1ccc(NCC2=CC(=O)C=CC2=O)cc1
inactive: COLO 205 2.83 µM | NCI-H23 8.61 µM | SN12C 11.4 µM | SF-539 5.52 µM | SF-268 11.5 µM | OVCAR-3 4.15 µM | SK-MEL-5 14.4 µM | HCT-116 13.2 µM | SK-OV-3 17.1 µM | HCC 2998 20 µM | NCI/ADR-RES 8.93 µM | BT-549 11.6 µM | HOP-62 25.9 µM | CAKI-1 1.48 µM | SK-MEL-28 15.6 µM | SK-MEL-2 16.7 µM | PC-3 12 µM | SR 2.47 µM | IGROV-1 11.6 µM | CCRF-CEM 1.76 µM

COc1cc(C2c3cc4c(cc3OC(O)C2C)OCO4)cc(OC)c1O (stereo not given)
inactive: COLO 205 18.2 µM | NCI-H23 28.8 µM | SN12C 11.8 µM | SF-539 6.28 µM | SF-268 15.8 µM | OVCAR-3 4.24 µM | SK-MEL-5 4.66 µM | HCT-116 3.95 µM | SK-OV-3 6.59 µM | HCC 2998 10.9 µM | NCI/ADR-RES 3.49 µM | BT-549 7.26 µM | HOP-62 10.7 µM | CAKI-1 8.79 µM | SK-MEL-28 28.7 µM | SK-MEL-2 10.3 µM | PC-3 8.49 µM | SR 2.9 µM | IGROV-1 8.55 µM | CCRF-CEM 5.19 µM

Reference: ChEMBL document CHEMBL1201862, “PubChem BioAssay data set” (2004)
